# Legend:
# primary AML BMMNC = assay: Human cytokine proteome profile array of cell-free supernatants from treated primary AML BMMNC; assay type: cell-based; details: 80 nM GILT, 3 days ex vivo, Patient #1 and #2, vs non-treated control
# Description: (§1) To identify the protein(s) responsible for initiation of the survival mechanism and subsequent proliferation of AML blasts, human cytokine proteome profile arrays of cell-free supernatants from GILT-treated MV4-11's cultures were performed. […] Under the no treatment (No Tx) condition, MV4-11 releases numerous cytokines such as MIF in their supernatant; however, one dose of GILT-treatment eliminated release of a variety of cytokines such as osteopontin (arrows, FIG. 7A), a protein closely associated with adverse prognosis in AML patients. Next, bone marrow mononuclear cells (BMMNC) from AML patients were treated for 3 days ex vivo.
# Human Samples. AML bone marrow (BM) mononuclear cells (BMMNC) (Patients #1-7, Table 4) were obtained from the City of Hope National Medical Center (COHNMC). All donor patients signed an informed consent form. Sample acquisition was approved by the Institutional Review Boards at the LLUMC and the COHNMC in accordance with an assurance filed with and approved by the Department of Health and Human Services, and it met all requirements of the Declaration of Helsinki.
# For MIF in vitro experiments, different doses of MIF were added to 1 ml of 1×10^6 MV4-11 cells or RAW264.7 cells for each experimental group in 24-well plates. Two days after the one dose treatment, cells were then collected for either analyses by FACS and qPCR. […]
# MV4-11 cells [1] = assay: Human cytokine proteome profile array of cell-free supernatants from GILT-treated MV4-11; assay type: cell-based; details: 80 nM GILT, MV4-11, vs non-treatment control
# Description: as §1
# Proteomics and Blotting Analysis. Three days after the one dose treatment, the cell-free supernatants were collected for human cytokine profile assay. The Human XL Cytokine Array Kit (Catalog #ARY022B, R&D) was used according to the manufacturer's procedures and exposed to X-ray film (<10 minutes). Profiles of mean spot pixel density were created using a transmission-mode scanner and Image J analysis software.
# MV4-11 cells [2] = assay: Coculture of GILT and exogenous MIF on MV4-11 (sequential or simultaneous); assay type: cell-based, human; details: MV4-11, sequential coculture 5 days, 80 nM GILT only
# Description: To investigate whether MIF/CXCLs-CXCR2 pathways could be activated by TKI-treatment in viable blasts to support their survival and continuous proliferation, a serial coculture was conducted to examine whether the supplementation of exogenous MIF at early (simultaneous) or late stage (sequential) of TKI treatment could rescue the GIL-treated MV4-11 in vitro. CD44, a multifunctional cell surface adhesion receptor, was identified as a key regulator of quiescent AML leukemic stem cells (LSCs) which are highly microenvironment dependent. […] In the simultaneous coculture, another group of CD44High^+ cells was also found which included both Ki67^+ and Ki67^− subsets (FIG. 8F). This group of CD44High^+ cells could be visualized in the flow cytometry histogram (FIG. 8G). […] CD44high^+ stem-like cells have been previously found to be highly tumorigenic, treatment-resistant and responsible for metastatic progression in breast cancer.
# MV4-11 blasts = assay: GILT combined with MIF inhibitor or CXCR2 inhibitor on MV4-11 blasts in vitro (FACS); assay type: cell-based, human; details: 80 nM GILT, 50 uM SB225002, 3 days
# Description: Whether targeting the MIF-CXCR2 signaling pathway would effectively treat AML blasts were investigated. First, the combination of GILT with ribosomal protein S19 (RPS19) on MV4-11 blasts was tested in vitro. RPS19, a MIF inhibitor, has been reported to suppress cisplatin-activated MIF-CD74-NFκB signaling pathway in acute kidney injury. […] The combination of 80 nM GILT with 50 uM SB225002, a CXCR2-inhibitor (CXCR2-I) on MV4-11 blasts in vitro were examined. […] The anti-leukemic effect of combining GILT with CXCR2-I on primary BMMNC ex vivo were examined. […] There may be alternative cytokine pathways compensating for the defect of MIF-CXCR2 pathways.
# For MIF in vitro experiments, different doses of MIF were added to 1 ml of 1×10^6 MV4-11 cells or RAW264.7 cells for each experimental group in 24-well plates. Two days after the one dose treatment, cells were then collected for either analyses by FACS and qPCR. As combination agents to treat blasts in vitro or ex vivo, one dose of 80 nM GILT with one dose of different inhibitors were added to 1 ml of 1×10^6 MV4-11 cells or 1 ml of 0.5-1×10^6 primary AML BMMNC for each experimental group in 24-well plates. Dose-dependent experiments of CXCR2 inhibitor and NFκB inhibitor with or without 80 nM GILT were performed. […] Three days after the one dose treatment, cells were then collected for either analyses by FACS and qPCR.
# Flow Cytometry (FACS). Cells were harvested and examined for the expression of cell surface biomarkers (CD) and intracellular proteins by multichromatic FACS as previously described. About 1×10^4˜10^6 cells in 100 μl FACS buffer (PBS containing 1% FBS and 0.05% sodium azide) were stained with various fluorescence-conjugated antibodies specific for the desired cell surface proteins at 4° C. for 30 min. The surface-stained cells were then fixed and permeabilized using the appropriate reagents (e.g. the BD Pharmingen Cytofix/Cytoperm buffer) and stained with different fluorescence-conjugated antibodies specific for the desired intracellular proteins at 4° C. for 2 hours in the permeabilizing buffer (e.g. the BD Perm/Wash buffer). Concentrations of the Abs were used per the manufacturers' recommendations. Finally, the cells were washed twice in the permeabilizing buffer and twice in the FACS buffer before being analyzed on the BD FACSAria II. Data was analyzed using the FlowJo software (Tree Star Inc., Ashland, OR).
structure (smiles),measurement,setting,value
"CCc1nc(C(N)=O)c(Nc2ccc(N3CCC(N4CCN(C)CC4)CC3)c(OC)c2)nc1NC1CCOCC1 [GILT, Gilteritinib]",MIF release increase in the supernatant,primary AML BMMNC,2.1 fold
same,MIF increase in the supernatant (mean pixel density),MV4-11 cells [1],2.6 fold
same,percentage of viable quiescent CD44+ cell population,MV4-11 cells [2],17.7%
same,percentage of viable CD44+ MV4-11 blasts,MV4-11 blasts,12.2%
same,percentage of Ki67+CD44+ blasts,MV4-11 blasts; MV4-11,12.2%
